How the values were obtained:
[1] = tested on: barnyardgrass; experiment: Test A pre-/postemergence greenhouse test; assay type: in vivo, Echinochloa crus-galli; settings: for Plant response rating, Barnyardgrass: 0 to 100 scale where 0 is no effect and 100 is complete control; for Barnyardgrass plant response rating: 0 to 100 scale
Procedure, shortened: (§1)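 Greenhouse herbicide screen, pre- and postemergence in parallel. Soil: loam plus sand. Formulation: non-phytotoxic solvent mix with surfactant. Postemergence stage: one to two leaves, 2–10 cm height. Evaluation: visual injury, compared with untreated controls, about 10 days after treatment.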

[2] = tested on: soybean; experiment: Test C pre-/postemergence test; assay type: in vivo, Glycine max; settings: for Plant response rating, Soybean: 31 g ai/ha, scale 0 to 100 (0 no effect, 100 complete control)
Procedure, shortened: (§2)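 Compounds in a non-phytotoxic solvent with surfactant applied preemergence to seeded pots and, at the same time, postemergence to plants 2–18 cm tall (1- to 4-leaf stage). Paddy tests: pots flooded to 3 cm, compound applied into the water, depth held throughout.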

[3] = tested on: lambsquarters; experiment: Test C pre-/postemergence test; assay type: in vivo, Chenopodium album; settings: for Plant response rating, Lambsquarters: 31 g ai/ha, scale 0 to 100 (0 no effect, 100 complete control)
Procedure, shortened: as §2

[4] = tested on: kochia; experiment: Test C pre-/postemergence test; assay type: in vivo, Kochia scoparia; settings: for Plant response rating, Kochia: 31 g ai/ha, scale 0 to 100 (0 no effect, 100 complete control)
Procedure, shortened: as §2

[5] = tested on: crabgrass; experiment: Test C pre-/postemergence test; assay type: in vivo, Digitaria sanguinalis; settings: for Plant response rating, Crabgrass, Large: 31 g ai/ha, scale 0 to 100 (0 no effect, 100 complete control)
Procedure, shortened: as §2

[6] = tested on: Surinam grass; experiment: Test C pre-/postemergence test; assay type: in vivo, Brachiaria decumbens; settings: for Plant response rating, Surinam Grass: 31 g ai/ha, scale 0 to 100 (0 no effect, 100 complete control)
Procedure, shortened: as §2

[7] = tested on: crabgrass; experiment: Test A pre-/postemergence greenhouse test; assay type: in vivo, Digitaria sanguinalis; settings: for Plant response rating, Crabgrass, Large: 0 to 100 scale where 0 is no effect and 100 is complete control; for Crabgrass, Large plant response rating: 0 to 100 scale
Procedure, shortened: as §1

[8] = tested on: pigweed; experiment: Test C pre-/postemergence test; assay type: in vivo, Amaranthus retroflexus; settings: for Plant response rating, Pigweed: 31 g ai/ha, scale 0 to 100 (0 no effect, 100 complete control)
Procedure, shortened: as §2

[9] = tested on: umbrella sedge; experiment: Test C flooded paddy test; assay type: in vivo, Cyperus difformis; settings: Flood
Procedure, shortened: (§3)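 Ratings were visual and made relative to untreated controls after 13 to 15 greenhouse days.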

[10] = tested on: morningglory; experiment: Test A pre-/postemergence greenhouse test; assay type: in vivo, Ipomoea spp.; settings: for Plant response rating, Morningglory: 0 to 100 scale where 0 is no effect and 100 is complete control; for Morningglory plant response rating: 0 to 100 scale
Procedure, shortened: as §1

[11] = tested on: Italian ryegrass; experiment: Test C pre-/postemergence test; assay type: in vivo, Lolium multiflorum; settings: for Plant response rating, Ryegrass, Italian: 31 g ai/ha, scale 0 to 100 (0 no effect, 100 complete control)
Procedure, shortened: as §2

[12] = tested on: giant foxtail; experiment: Test A pre-/postemergence greenhouse test; assay type: in vivo, Setaria faberi; settings: for Plant response rating, Foxtail, Giant: 0 to 100 scale where 0 is no effect and 100 is complete control; for Foxtail, Giant plant response rating: 0 to 100 scale
Procedure, shortened: as §1

[13] = tested on: common (oilseed) sunflower; experiment: Test C pre-/postemergence test; assay type: in vivo, Helianthus annuus; settings: for Plant response rating, Sunflower: 31 g ai/ha, scale 0 to 100 (0 no effect, 100 complete control)
Procedure, shortened: as §2

[14] = tested on: cocklebur; experiment: Test C pre-/postemergence test; assay type: in vivo, Xanthium strumarium; settings: for Plant response rating, Cocklebur: 31 g ai/ha, scale 0 to 100 (0 no effect, 100 complete control)
Procedure, shortened: as §2

[15] = tested on: Goosegrass; experiment: Test C pre-/postemergence test; assay type: in vivo, Eleusin indica; settings: for Plant response rating, Goosegrass: 31 g ai/ha, scale 0 to 100 (0 no effect, 100 complete control)
Procedure, shortened: as §2

[16] = tested on: barnyardgrass; experiment: Test C flooded paddy test; assay type: in vivo, Echinochloa crus-galli; settings: Flood
Procedure, shortened: as §3

[17] = tested on: bermudagrass; experiment: Test C pre-/postemergence test; assay type: in vivo, Cynodon dactylon; settings: for Plant response rating, Bermudagrass: 31 g ai/ha
Procedure, shortened: as §2

[18] = Postemergence, 500 g ai/ha, 0 is no effect, 100 is complete control
[19] = Preemergence, 125 g ai/ha, 0 no effect, 100 complete control
[20] = 62 g ai/ha, Preemergence, scale 0 to 100
[21] = 125 g ai/ha, preemergence, scale 0 (no effect) to 100 (complete control)
[22] = preemergence, 250 g ai/ha, scale 0 (no effect) to 100 (complete control)
[23] = 62 g ai/ha, scale 0 to 100 (0 no effect, 100 complete control)
[24] = 250 g ai/ha, scale 0 to 100, 0 no effect, 100 complete control, 13 to 15 days
[25] = 62 g ai/ha, Preemergence, scale 0 to 100 (0 no effect, 100 complete control)
[26] = Preemergence, scale 0 to 100 (0 no effect, 100 complete control)
[27] = Postemergence, 125 g ai/ha, 0 is no effect, 100 is complete control
[28] = 31 g ai/ha, scale 0 to 100 (0 no effect, 100 complete control)
[29] = 62 g ai/ha, scale 0 to 100, 0 no effect, 100 complete control, 13 to 15 days
[30] = 125 g ai/ha, scale 0 to 100, 0 no effect, 100 complete control, 13 to 15 days

CC(Oc1c(C[S+]([O-])c2cccc[n+]2[O-])c(C(F)(F)F)nn1C)C(F)(F)F (stereo not shown) [Compound 77]
Plant response rating, Barnyardgrass ([1]; Postemergence, 125 g ai/ha): 80 | Barnyardgrass plant response rating [1, 18]: 90 | Barnyardgrass plant response rating [1, 19]: 90 | Plant response rating, Barnyardgrass ([1]; Preemergence, 500 g ai/ha): 100 | Soybean plant response rating [2, 20]: 45 | Soybean plant response rating [2, 21]: 70 | Plant response rating, Soybean ([2]; Preemergence): 40 | Soybean plant response rating [2, 22]: 100 | Lambsquarters plant response rating [3, 20]: 100 | Lambsquarters plant response rating [3, 21]: 100 | Plant response rating, Lambsquarters ([3]; Preemergence): 100 | Lambsquarters plant response rating [3, 22]: 100 | Kochia plant response rating [4, 20]: 100 | Kochia plant response rating [4, 21]: 100 | Plant response rating, Kochia ([4]; Preemergence): 100 | Kochia plant response rating [4, 22]: 100 | Crabgrass, Large plant response rating [5, 20]: 100 | Crabgrass, Large plant response rating [5, 21]: 100 | Plant response rating, Crabgrass, Large ([5]; Preemergence): 80 | Crabgrass, Large plant response rating [5, 22]: 100 | Surinam Grass plant response rating [6, 20]: 100 | Surinam Grass plant response rating [6, 21]: 100 | Plant response rating, Surinam Grass ([6]; Preemergence): 85 | Surinam Grass plant response rating [6, 22]: 100 | Plant response rating, Crabgrass, Large ([7]; Postemergence, 125 g ai/ha): 60 | Crabgrass, Large plant response rating [7, 18]: 90 | Crabgrass, Large plant response rating [7, 19]: 80 | Plant response rating, Crabgrass, Large ([7]; Preemergence, 500 g ai/ha): 100 | Pigweed plant response rating [8, 20]: 100 | Pigweed plant response rating [8, 21]: 100 | Plant response rating, Pigweed ([8]; Preemergence): 100 | Pigweed plant response rating [8, 22]: 100 | Plant response rating, Sedge, Umbrella [9, 23]: 100 | Plant response rating, Sedge, Umbrella [9, 24]: 100 | Plant response rating, Morningglory ([10]; Postemergence, 125 g ai/ha): 70 | Morningglory plant response rating [10, 18]: 90 | Morningglory plant response rating [10, 19]: 70 | Plant response rating, Morningglory ([10]; Preemergence, 500 g ai/ha): 100 | Ryegrass, Italian plant response rating [11, 20]: 98 | Ryegrass, Italian plant response rating [11, 21]: 100 | Plant response rating, Ryegrass, Italian ([11]; Preemergence): 80 | Ryegrass, Italian plant response rating [11, 22]: 100 | Plant response rating, Foxtail, Giant ([12]; Postemergence, 125 g ai/ha): 80 | Foxtail, Giant plant response rating [12, 18]: 90 | Foxtail, Giant plant response rating [12, 19]: 90 | Plant response rating, Foxtail, Giant ([12]; Preemergence, 500 g ai/ha): 100 | Sunflower plant response rating [13, 20]: 0 | Sunflower plant response rating [13, 21]: 80 | Plant response rating, Sunflower ([13]; Preemergence): 0 | Sunflower plant response rating [13, 22]: 98 | Cocklebur plant response rating [14, 21]: 0 | Plant response rating, Cocklebur ([14]; Preemergence): 0 | Cocklebur plant response rating [14, 22]: 0 | Goosegrass plant response rating [15, 20]: 100 | Goosegrass plant response rating [15, 21]: 100 | Plant response rating, Goosegrass ([15]; Preemergence): 95 | Goosegrass plant response rating [15, 22]: 100 | Plant response rating, Barnyardgrass [16, 23]: 0 | Plant response rating, Barnyardgrass [16, 24]: 75 | Bermudagrass plant response rating [17, 25]: 100 | Bermudagrass plant response rating [17, 21]: 100 | Plant response rating, Bermudagrass [17, 26]: 100 | Bermudagrass plant response rating [17, 22]: 100

Cn1nc(C(F)(F)F)c(C(Cl)S(=O)(=O)c2cccc[n+]2[O-])c1OCC(F)(F)F (racemic) [Compound 36]
Barnyardgrass plant response rating [1, 27]: 40 | Barnyardgrass plant response rating [1, 18]: 80 | Barnyardgrass plant response rating [1, 19]: 100 | Plant response rating, Barnyardgrass ([1]; Preemergence, 500 g ai/ha): 100 | Soybean plant response rating [2, 20]: 5 | Soybean plant response rating [2, 21]: 15 | Plant response rating, Soybean ([2]; Preemergence): 0 | Soybean plant response rating [2, 22]: 20 | Lambsquarters plant response rating [3, 20]: 60 | Lambsquarters plant response rating [3, 21]: 80 | Plant response rating, Lambsquarters ([3]; Preemergence): 0 | Lambsquarters plant response rating [3, 22]: 95 | Kochia plant response rating [4, 21]: 20 | Plant response rating, Kochia ([4]; Preemergence): 0 | Kochia plant response rating [4, 22]: 100 | Crabgrass, Large plant response rating [5, 20]: 80 | Crabgrass, Large plant response rating [5, 21]: 100 | Plant response rating, Crabgrass, Large ([5]; Preemergence): 65 | Crabgrass, Large plant response rating [5, 22]: 100 | Surinam Grass plant response rating [6, 20]: 80 | Surinam Grass plant response rating [6, 21]: 100 | Plant response rating, Surinam Grass ([6]; Preemergence): 50 | Surinam Grass plant response rating [6, 22]: 100 | Crabgrass, Large plant response rating [7, 27]: 50 | Crabgrass, Large plant response rating [7, 18]: 80 | Crabgrass, Large plant response rating [7, 19]: 70 | Plant response rating, Crabgrass, Large ([7]; Preemergence, 500 g ai/ha): 90 | Pigweed plant response rating [8, 20]: 90 | Pigweed plant response rating [8, 21]: 100 | Plant response rating, Pigweed ([8]; Preemergence): 80 | Pigweed plant response rating [8, 22]: 100 | Plant response rating, Sedge, Umbrella [9, 28]: 80 | Plant response rating, Sedge, Umbrella [9, 29]: 85 | Plant response rating, Sedge, Umbrella [9, 30]: 95 | Plant response rating, Sedge, Umbrella [9, 24]: 100 | Morningglory plant response rating [10, 27]: 0 | Morningglory plant response rating [10, 18]: 30 | Morningglory plant response rating [10, 19]: 0 | Plant response rating, Morningglory ([10]; Preemergence, 500 g ai/ha): 80 | Ryegrass, Italian plant response rating [11, 20]: 98 | Ryegrass, Italian plant response rating [11, 21]: 100 | Plant response rating, Ryegrass, Italian ([11]; Preemergence): 30 | Ryegrass, Italian plant response rating [11, 22]: 100 | Foxtail, Giant plant response rating [12, 27]: 40 | Foxtail, Giant plant response rating [12, 18]: 70 | Foxtail, Giant plant response rating [12, 19]: 100 | Plant response rating, Foxtail, Giant ([12]; Preemergence, 500 g ai/ha): 100 | Sunflower plant response rating [13, 20]: 0 | Sunflower plant response rating [13, 21]: 0 | Plant response rating, Sunflower ([13]; Preemergence): 0 | Sunflower plant response rating [13, 22]: 0 | Cocklebur plant response rating [14, 20]: 0 | Cocklebur plant response rating [14, 21]: 0 | Plant response rating, Cocklebur ([14]; Preemergence): 0 | Cocklebur plant response rating [14, 22]: 0 | Goosegrass plant response rating [15, 20]: 100 | Goosegrass plant response rating [15, 21]: 100 | Plant response rating, Goosegrass ([15]; Preemergence): 85 | Goosegrass plant response rating [15, 22]: 100 | Plant response rating, Barnyardgrass [16, 28]: 0 | Plant response rating, Barnyardgrass [16, 29]: 10 | Plant response rating, Barnyardgrass [16, 30]: 25 | Plant response rating, Barnyardgrass [16, 24]: 90 | Bermudagrass plant response rating [17, 25]: 100 | Bermudagrass plant response rating [17, 21]: 100 | Plant response rating, Bermudagrass [17, 26]: 85 | Bermudagrass plant response rating [17, 22]: 100

Source: patent publication US20100298141A1, “SUBSTITUTED PYRIDINE N-OXIDE HERBICIDES” (E. I. DU PONT DE NEMOURS AND COMPANY, priority 2007, published 2010)
